US12510479B2, “Systems, devices, and methods for compound screening using predictive tagging” (ALLEN INSTITUTE, priority 2020, dated 2025)
Entries after “also recorded” stand apart in the source; their conditions may differ.

Legend:
Type in all cases: cell-based, human
[1] = test system: hiPSC Cell Line ID: AICS-0061 c1.36 Histone H2B type 1-J mEGFP-tagged; experiment: Label free prediction of condensed DNA from brightfield images (FIG. 8C-8D); settings: 5 μM, 2 hours, vs DMSO control
Excerpt: (§1) The fluorescent signal from the hiPSC Cell Line ID: AICS-0061 c1.36 Histone H2B type 1-J mEGFP-tagged (DNA tag) was used to train and validate the label free prediction model.
FIGS. 8C and 8D show the predicted images, based on the label free prediction model, obtained by imaging the nucleus of the cells with brightfield microscopy, and predicting the location and amount of condensed DNA, based on the trained model.

[2] = test system: hiPSC Cell Line ID: AICS-0061 c1.36 Histone H2B type 1-J mEGFP-tagged; experiment: Fluorescence imaging of Histone H2B mEGFP-tagged hiPSCs (FIG. 8E-8F); settings: 5 μM, 2 hours; mEGFP DNA tag; vs DMSO control
Excerpt: as §1

[3] = test system: Cell Line ID: AICS-0012 c1.105, Alpha tubulin mEGFP-tagged; experiment: Label free prediction of condensed DNA from brightfield images (FIG. 9C-9D); settings: 5 μM, 2 hours, vs DMSO control
Excerpt: (§2) Predicted imaging was also used with H2B (DNA) on Cell Line ID: AICS-0012 c1.105, Alpha tubulin mEGFP-tagged, to confirm the phenotype by two structures from the same cells.
FIGS. 9C and 9D show the predicted images, based on the label free prediction model, obtained by imaging the nucleus of the cells with brightfield microscopy, and predicting the location and amount of condensed DNA, based on the trained model.

AICS-61 (Histone) = experiment: Predicted, label free imaging of drug effects (FIG. 10B, 10G); settings: AICS-61 cells; predicted label free images
Excerpt: (§3) FIGS. 10A-10H show the predicted, label free imaging effects of different drugs on different, differentiated, hiPSC cell lines. […] Brefeldin inhibits protein transport from the endoplasmic reticulum to the golgi complex indirectly by preventing association of COP-I coat to the Golgi membrane.

hiPSC = experiment: Effect on microtubules and DNA during mitosis (FIG. 7)
Excerpt: Microtubules, DNA, and Cell membrane are each labeled.

[4] = test system: Cell Line ID: AICS-0012 c1.105, Alpha tubulin mEGFP-tagged; experiment: Fluorescence imaging of Alpha tubulin mEGFP-tagged hiPSCs (FIG. 9E-9F); settings: 5 μM, 2 hours, vs DMSO control
Excerpt: as §2

[5] = test system: EGFP-tagged cell lines AICS-23, AICS-44, AICS-61, AICS-24 and AICS-16; experiment: Drug perturbation signature using label free prediction of DNA (FIG. 11A-11C); settings: population statistics after DNA segmentation of label free prediction
Description: FIG. 11A-11C show the drug perturbation signature using label free prediction, as described herein.
These signatures were distinct from those of other drug perturbations such as BIX, Brefeldin, H89, and Monensin. The identification of these perturbation signatures were performed in the following EGFP-tagged cell lines; AICS-23 (tight junction), AICS-44 (Golgi), AICS-61 (Histone), AICS-24 (non-muscle Myosin) and AICS-16 (beta Actin) without additional introduction of DNA signals.

AICS-16 (beta Actin) = experiment: Predicted, label free imaging of drug effects (FIG. 10F, 10H); settings: AICS-16 cells; predicted label free images
Excerpt: as §3

[6] = test system: AICS-24 (non-muscle Myosin); experiment: Predicted, label free imaging of drug effects (FIG. 10D); settings: AICS-24 cells; predicted label free images
Excerpt: as §3

AICS-44 (Golgi) = experiment: Predicted, label free imaging of drug effects (FIG. 10C, 10E); settings: AICS-44 cells; predicted label free images
Excerpt: as §3

SMILES: CC(=O)O[C@H]1C(=O)[C@@]2(C)[C@H]([C@H](OC(=O)c3ccccc3)[C@]3(O)C[C@H](OC(=O)[C@H](O)[C@@H](NC(=O)c4ccccc4)c4ccccc4)C(C)=C1C3(C)C)[C@]1(OC(C)=O)CO[C@@H]1C[C@@H]2O [Paclitaxel]
- amount of condensed DNA in predicted images [1]: higher than the control cells
- condensed DNA, fluorescence image [2]: increase in condensed DNA
- amount of condensed DNA in predicted images [3]: higher than the control cells
- predicted effect on DNA, nuclear size, or microtubule formation (AICS-61 (Histone)): condensed DNA (condensed microtubules)
- microtubule bundle thickness (hiPSC): increases microtubule bundle thickness
- effect on hiPSC division (hiPSC; mitosis): arrest of cells in metaphase
- microtubule density (hiPSC; mitosis, FIG. 7): increase in microtubule density
- microtubule formation, fluorescence image [4]: increase in microtubule formation
- condensed DNA frequency (perturbation signature in predicted images) [5]: increase in frequency of DNA condensation frequency; also recorded: increased condensed DNA Frequency
- nuclear density (perturbation signature in predicted images) [5]: higher nuclear density
- nuclear volume (perturbation signature in predicted images) [5]: larger nuclear volume

SMILES: O=S(=O)(NCCNC/C=C/c1ccc(Br)cc1)c1cccc2cnccc12 [H89]
- predicted effect on DNA, nuclear size, or microtubule formation (AICS-61 (Histone)): no predicted effect on DNA, nuclear size, or microtubule formation

SMILES: C/C=C(/C)C(=O)O[C@H]1C(C)=C2[C@H]([C@@H]1OC(=O)CCCCCCC)[C@@](C)(OC(C)=O)C[C@H](OC(=O)CCC)[C@@]1(O)[C@H]2OC(=O)[C@@]1(C)O [Thapsigargin]
- predicted effect on DNA, nuclear size, or microtubule formation (AICS-16 (beta Actin)): no predicted effect on DNA, nuclear size, or microtubule formation

SMILES: CC[C@@]1([C@@H]2O[C@@H]([C@H]3O[C@@](O)(CO)[C@H](C)C[C@@H]3C)C[C@@H]2C)CC[C@H]([C@]2(C)CC[C@]3(C[C@H](O)[C@@H](C)[C@@H]([C@@H](C)[C@@H](OC)[C@H](C)C(=O)O)O3)O2)O1 [Monensin]
- predicted effect on DNA, nuclear size, or microtubule formation [6]: no predicted effect on DNA, nuclear size, or microtubule formation

SMILES: COc1cc2nc(N3CCCN(C)CC3)nc(NC3CCN(Cc4ccccc4)CC3)c2cc1OC [BIX-01294]
- predicted effect on DNA, nuclear size, or microtubule formation (AICS-44 (Golgi)): no predicted effect on DNA, nuclear size, or microtubule formation

SMILES: C[C@H]1CCC/C=C/[C@@H]2C[C@H](O)C[C@H]2[C@H](O)/C=C/C(=O)O1 [Brefeldin]
- predicted effect on DNA, nuclear size, or microtubule formation (AICS-44 (Golgi)): no predicted effect on DNA, nuclear size, or microtubule formation
